According to PMC3671673, “In Vitro Morphological Assessment of Apoptosis Induced by Antiproliferative Constituents from the Rhizomes of Curcuma zedoaria” (Evidence-based Complementary and Alternative Medicine : eCAM, 2013):
In brackets after ≈: the same amount, converted by molar mass. Marks after values point to notes of the source that are not given here.

Columns and labels:
HCT-116 cells = test: Hoechst 33342/PI dual staining, quantification of apoptotic/necrotic cells, HCT-116; type: cell-based, human; settings: 48 h
Description: (§1) Briefly, cells were grown on tissue culture dishes and treated with or without tested compounds at concentrations of 12.5, 25, 40, and 50 μg/mL. After 48 hours, the cells were harvested and washed with cold PBS to a density of 5 × 10^5 cells/mL. The cells were suspended in Hoechst 33342 solution (10 μg/mL) and were incubated at 37°C in CO2 for 7 minutes. After incubation with Hoechst 33342, the cells were counter stained with propidium iodide (2.5 μg/mL). The samples were maintained in the dark for 15 minutes. After staining, an aliquot of cell suspension was placed on a glass microscope slides. The slides were observed immediately under inverted fluorescence microscope (DM16000B, Germany) using UV/488 dual excitation and the fluorescence was measured at ~460 nm emission of Hoechst 33342 dye and >575 nm emission of propidium iodide at 630x magnification. At least 200 total target cells were counted and the numbers of each four cellular states were recorded and analyzed using fluorescence microscopy for quantification of apoptosis and necrosis. The experiment was conducted in triplicates. The percentages of apoptotic and necrotic cells were determined according to the following formula [27]: (1) Percentage of Apoptotic Cells (%) =(LA+DA)/ LN+LA+DN+DA×100,Percentage of Necrotic Cells (%) = DN/LN+LA+DN+DA×100, where LN are live target cells with normal nuclei (Hoechst 33342/PI: blue chromatin with organized structure), LA are live cells with apoptotic nuclei (Hoechst 33342/PI: bright blue chromatin that is highly condensed or fragmented), DN are dead cells with normal nuclei (Hoechst 33342/PI: pink chromatin with organized structure), and DA are dead cells with apoptotic nuclei (Hoechst 33342/PI: bright pink chromatin that is, highly condensed or fragmented).

Ca Ski cells = test: Hoechst 33342/PI dual staining, quantification of apoptotic/necrotic cells, Ca Ski; type: cell-based, human; settings: 48 h
Description: as §1

[1] = test system: active caspase-3 in HCT-116 cells; test: Flow cytometric active caspase-3 assay, HCT-116; type: cell-based, human
Description: Caspases are key mediators of cell death. Caspase-3 activity assay was performed using FITC Active Caspase-3 Apoptosis Kit (BD Pharmingen). These probes bind covalently and irreversibly to the active site of the active caspase heterodimer emitting the green fluorescent signal detected by the FL-1 channel. Briefly, the cancer cells were treated with curzerenone (25, 40, and 50 μg/mL) and alismol (12.5, 25, and 40 μg/mL) for 48 h. The assay was performed based on the manufacturer's protocol. Cells were analyzed using BD Accuri C6 flow cytometry and BD CFlow software.

[2] = test system: colon carcinoma cell line (HCT-116); test: Neutral red cytotoxicity assay, HCT-116; type: cell-based; settings: Homo sapiens, isolated compounds, 72 h, mean ± SD of three replicates, read-out: IC50 (μg/mL) HCT-116
Description: The human cancer cells KB, Ca Ski, MCF-7, HCT-116, A549, and noncancer human cell lines (MRC-5) were purchased from the American Tissue Culture Collection (ATCC, USA). The supplemented RPMI 1640 media and eagle minimum essential medium (EMEM) were purchased from Sigma-Aldrich, USA. The supplements or antibiotics such as foetal bovine serum (FBS), penicillin/streptomycin (P/S) (100 μg/mL), amphotericin B (50 μg/mL), and accutase were purchased from PAA Laboratories, Austria. Sodium pyruvate (11 mg/mL) purchased from Sigma-Aldrich, USA. The cells were cultured in a SHEL LAB water-jacketed CO2 incubator with […] tissue culture flasks (Nunc, Denmark), which was observed routinely under inverted microscope (Leica DMI3000 B, Germany) for any contamination and seeded into 96-well flat bottom microtiter plate (Nunc, Denmark). The extract or pure compounds was dissolved in dimethyl sulfoxide (DMSO, Molecular Biology Grade, >99.9%) from Sigma-Aldrich, USA. Microtiter plate incubator shaker (LT Biomax 500) was used and absorbance was measured at 540 nm using an ELISA microplate reader (EMax microplate reader of Molecular Devices, USA). MCF-7 and Ca Ski were cultured in RPMI 1640 media supplemented with 10% v/v FBS, P/S, and amphotericin B and MRC-5 in EMEM media with 10% v/v FBS, P/S, amphotericin B, and sodium pyruvate. The cells were cultured in tissue culture flask in 5% CO2 incubator kept at 37°C in a humidified atmosphere and observed routinely under inverted microscope from any contaminations. Each fresh medium was replaced every 2 or 3 days until cell confluence was achieved and the cells were detached by using accutase.
The in vitro cytotoxicity activity was performed using the neutral red cytotoxicity assay based on the initial protocol as described earlier with some modifications. Briefly, cells were detached from the tissue culture flask with 1.0 mL solution of accutase and PBS solution. The cell pellet was obtained by centrifugation at 1,000 rpm for 5 minutes. The density of the viable cells was counted by 0.4% of trypan blue exclusion in a haemocytometer. Cells were then plated in 96-well microtiter plate (Nunc), at a concentration of 1 × 10^4 cells/well and incubated in a CO2 incubator at 37°C to allow the cells to adhere. After 24 h, the cells were treated with six different concentrations, that is, 1, 10, 25, 50, 75, and 100 μg/mL of each tested agent in three replicates. The plates were incubated for 72 h at 37°C in a 5% CO2 incubator. The untreated cells were regarded as a negative control, whilst cells incubated only with DMSO (0.5%, v/v) were used as a vehicle control. No effect due to the DMSO was observed. Doxorubicin was used as the positive control. After 72 h, the old medium was substituted with fresh medium containing 50 μg/mL neutral red. The 96-well plates were placed into incubator for 3 h. This is to allow the uptake of the vital dye into the lysosomes of viable and undamaged cells. Then, the media was discarded and cells were washed with 200 μL of neutral red washing solution. The dye was eluted from the cells by adding neutral red resorb solution (200 μL). The plate was further incubated for 30 min with rapid agitation on a microtiter plate shaker. The optical density (OD) of the eluted dye was read at 540 nm using a microplate reader. The experiments were conducted in triplicates. […] Cytotoxicity of each test agent is expressed as IC50 value. […]

C=CC1(C)Cc2occ(C)c2C(=O)C1C(=C)C (stereo not drawn) [Curzerenone, curzerenone]
Percentage of apoptotic cells (%) (HCT-116 cells; HCT-116, 12.5 μg/mL): 45.00 ± 0.5^a %
Percentage of necrotic cells (%) (HCT-116 cells; HCT-116, 12.5 μg/mL): 9.00 ± 1.50^a %
Percentage of apoptotic cells (%) (HCT-116 cells; HCT-116, 25 μg/mL): 50.00 ± 0.5^b %
Percentage of necrotic cells (%) (HCT-116 cells; HCT-116, 25 μg/mL): 15.33 ± 0.80^b %
Percentage of apoptotic cells (%) (HCT-116 cells; HCT-116, 25 μg/mL, listed as curzerenone): 50.0 ± 0.5%
Percentage of apoptotic cells (%) (HCT-116 cells; HCT-116, 40 μg/mL): 46.5 ± 1.44^a %
Percentage of necrotic cells (%) (HCT-116 cells; HCT-116, 40 μg/mL): 25.00 ± 0.50^c %
Percentage of apoptotic cells (%) (HCT-116 cells; HCT-116, 50 μg/mL): 49.17 ± 1.4^b %
Percentage of necrotic cells (%) (HCT-116 cells; HCT-116, 50 μg/mL): 28.00 ± 0.50^d %
Percentage of apoptotic cells (%) (Ca Ski cells; 12.5 μg/mL): 4.82 ± 0.59^a %
Percentage of necrotic cells (%) (Ca Ski cells; 12.5 μg/mL): 3.50 ± 1.30^a %
Percentage of apoptotic cells (%) (Ca Ski cells; 25 μg/mL): 7.89 ± 1.77^b %
Percentage of necrotic cells (%) (Ca Ski cells; 25 μg/mL): 5.57 ± 1.10^b %
Percentage of apoptotic cells (%) (Ca Ski cells; 40 μg/mL): 39.67 ± 1.89^c %
Percentage of necrotic cells (%) (Ca Ski cells; 40 μg/mL): 11.83 ± 2.10^c %
Percentage of apoptotic cells (%) (Ca Ski cells; 50 μg/mL): 54.67 ± 1.76^d %
Percentage of necrotic cells (%) (Ca Ski cells; 50 μg/mL): 16.33 ± 1.0^d %
Percentage of apoptotic cells (%) (Ca Ski cells; 50 μg/mL, listed as curzerenone): 54.7 ± 1.8%
highest increment in caspase-3 activity compared to untreated cells ([1]; HCT-116, 48 h, concentration not given): 100 folds
IC50 [2]: 53 ± 1.5 µg/mL (≈ 230 µM)

C=C1CCC(C(C)C)=CC2C1CC[C@@]2(C)O (stereo partly drawn) [Alismol, alismol]
Percentage of apoptotic cells (%) (HCT-116 cells; HCT-116, 12.5 μg/mL): 48.83 ± 1.61^b %
Percentage of necrotic cells (%) (HCT-116 cells; HCT-116, 12.5 μg/mL): 19.50 ± 1.00^a %
Percentage of apoptotic cells (%) (HCT-116 cells; HCT-116, 25 μg/mL): 55.33 ± 3.01^b %
Percentage of necrotic cells (%) (HCT-116 cells; HCT-116, 25 μg/mL): 26.00 ± 1.30^b %
Percentage of apoptotic cells (%) (HCT-116 cells; HCT-116, 25 μg/mL, listed as alismol): 55.3 ± 3.0%
Percentage of apoptotic cells (%) (HCT-116 cells; HCT-116, 40 μg/mL): 21.33 ± 2.02^a %
Percentage of necrotic cells (%) (HCT-116 cells; HCT-116, 40 μg/mL): 67.67 ± 2.60^c %
Percentage of apoptotic cells (%) (HCT-116 cells; HCT-116, 50 μg/mL): 19.00 ± 0.87^a %
Percentage of necrotic cells (%) (HCT-116 cells; HCT-116, 50 μg/mL): 76.67 ± 0.80^d %
Percentage of necrotic cells (%) (HCT-116 cells; HCT-116, 50 μg/mL, listed as alismol): 76.7 ± 0.8%
Percentage of apoptotic cells (%) (Ca Ski cells; 12.5 μg/mL): 8.83 ± 0.58^a %
Percentage of necrotic cells (%) (Ca Ski cells; 12.5 μg/mL): 5.83 ± 1.50^a %
Percentage of apoptotic cells (%) (Ca Ski cells; 25 μg/mL): 53.67 ± 1.76^d %
Percentage of necrotic cells (%) (Ca Ski cells; 25 μg/mL): 14.00 ± 3.50^b %
Percentage of apoptotic cells (%) (Ca Ski cells; 25 μg/mL, listed as alismol): 53.7 ± 1.8%
Percentage of apoptotic cells (%) (Ca Ski cells; 40 μg/mL): 41.67 ± 0.76^c %
Percentage of necrotic cells (%) (Ca Ski cells; 40 μg/mL): 45.33 ± 0.60^c %
Percentage of apoptotic cells (%) (Ca Ski cells; 50 μg/mL): 32.67 ± 1.04^b %
Percentage of necrotic cells (%) (Ca Ski cells; 50 μg/mL): 60.33 ± 1.00^d %
Percentage of necrotic cells (%) (Ca Ski cells; 50 μg/mL, listed as alismol): 60.3 ± 1.0%
highest increment of caspase-3 activity ([1]; HCT-116, 40 μg/mL, 48 h): 45 folds
IC50 [2]: 9 ± 0.9 µg/mL (≈ 40.8 µM)
